# Assay results published in ChEMBL document CHEMBL4673368, “Ophiobolin Sesterterpenoids and Farnesylated Phthalide Derivatives from the Deep Sea Cold-Seep-Derived Fungus Aspergillus insuetus SD-512” (2020).
# Key:
# Format in all cases: functional
# [1] = system: Vibrio vulnificus; assay: Antibacterial activity against Vibrio vulnificus QDIO-4 assessed as reduction in microbial growth after 24 hrs by serial dilution method
# [2] = system: Vibrio parahaemolyticus; assay: Antibacterial activity against Vibrio parahaemolyticus QDIO-5 assessed as reduction in microbial growth after 24 hrs by serial dilution method
# [3] = system: Vibrio anguillarum; assay: Antibacterial activity against Vibrio anguillarum QDIO-9 assessed as reduction in microbial growth after 24 hrs by serial dilution method
# [4] = system: Vibrio alginolyticus; assay: Antibacterial activity against Vibrio alginolyticus QDIO-7 assessed as reduction in microbial growth after 24 hrs by serial dilution method
# [5] = system: Pseudomonas aeruginosa; assay: Antibacterial activity against Pseudomonas aeruginosa QDIO-2 assessed as reduction in microbial growth after 24 hrs by serial dilution method
# [6] = system: Edwardsiella tarda; assay: Antibacterial activity against Edwardsiella tarda QDIO-8 assessed as reduction in microbial growth after 24 hrs by serial dilution method
# [7] = system: Escherichia coli; assay: Antibacterial activity against Escherichia coli QDIO-1 assessed as reduction in microbial growth after 24 hrs by serial dilution method
# [8] = system: Aeromonas hydrophila; assay: Antibacterial activity against Aeromonas hydrophila QDIO-10 assessed as reduction in microbial growth after 24 hrs by serial dilution method
MIC [1],MIC [3],MIC [4],MIC [5],MIC [6],MIC [7],MIC [8],Compound,MIC [2]
4 µg/mL,> 32 µg/mL,4 µg/mL,16 µg/mL,8 µg/mL,32 µg/mL,8 µg/mL,COc1cc2c(c(O)c1OC/C=C(\C)CC/C=C(\C)CCC=C(C)C)COC2=O,16 µg/mL
8 µg/mL,32 µg/mL,4 µg/mL,8 µg/mL,8 µg/mL,16 µg/mL,8 µg/mL,CC(C)=C/C=C\[C@H](C)[C@H]1CC[C@]2(C)C[C@@H]3C(C)=CC(=O)[C@H]3/C(C=O)=C\C[C@@H]12,8 µg/mL
> 32 µg/mL,> 32 µg/mL,> 32 µg/mL,> 32 µg/mL,> 32 µg/mL,> 32 µg/mL,> 32 µg/mL,CO[C@]12C[C@@](C)(O)[C@H]3C[C@@]4(C)CC[C@H]([C@@H](C)/C=C\C=C(C)C)[C@@H]4C/C=C(/CO1)[C@@]32O,> 32 µg/mL
4 µg/mL,> 32 µg/mL,8 µg/mL,16 µg/mL,8 µg/mL,32 µg/mL,16 µg/mL,COc1cc2c(c(O)c1OC/C=C(\C)CC/C=C(\C)CCCC(C)(C)O)COC2=O,16 µg/mL
> 32 µg/mL,> 32 µg/mL,> 32 µg/mL,> 32 µg/mL,> 32 µg/mL,> 32 µg/mL,> 32 µg/mL,CC(C)=CCC[C@H](C)[C@H]1CC[C@]2(C)C[C@@H]3C(C)=CC(=O)[C@H]3/C(CO)=C\C[C@@H]12,> 32 µg/mL
> 32 µg/mL,> 32 µg/mL,> 32 µg/mL,> 32 µg/mL,> 32 µg/mL,> 32 µg/mL,> 32 µg/mL,CC(C)=C/C=C\[C@H](C)[C@H]1CC[C@]2(C)C[C@H]3[C@@H]4/C(=C\C[C@@H]12)CO[C@]4(O)C[C@@]3(C)O,> 32 µg/mL
4 µg/mL,> 32 µg/mL,4 µg/mL,8 µg/mL,4 µg/mL,32 µg/mL,8 µg/mL,COc1cc2c(c(O)c1OC/C=C(\C)CC/C=C(\C)CCCC(C)(C)OC(C)=O)COC2=O,8 µg/mL
> 32 µg/mL,> 32 µg/mL,> 32 µg/mL,> 32 µg/mL,> 32 µg/mL,> 32 µg/mL,> 32 µg/mL,CC(C)=CCC[C@H](C)[C@H]1CC[C@]2(C)C[C@@H]3C(C)=CC(=O)[C@H]3/C(C=O)=C\C[C@@H]12,> 32 µg/mL
> 32 µg/mL,> 32 µg/mL,> 32 µg/mL,> 32 µg/mL,> 32 µg/mL,> 32 µg/mL,> 32 µg/mL,CC(C)=CCC[C@H](C)[C@H]1CC[C@]2(C)C[C@H]3[C@@H]4/C(=C\C[C@@H]12)CO[C@]4(O)C[C@@]3(C)O,> 32 µg/mL
8 µg/mL,32 µg/mL,4 µg/mL,8 µg/mL,8 µg/mL,16 µg/mL,8 µg/mL,CC(C)=C/C=C\[C@H](C)[C@H]1CC[C@]2(C)C[C@@H]3C(C)=CC(=O)[C@H]3/C(CO)=C\C[C@@H]12,8 µg/mL
8 µg/mL,32 µg/mL,4 µg/mL,8 µg/mL,4 µg/mL,4 µg/mL,4 µg/mL,CC(C)=CCC[C@H](C)[C@H]1CC[C@]2(C)C[C@H]3[C@H]4/C(=C\C[C@@H]12)CO[C@@]4(O)C[C@@]3(C)O,4 µg/mL

Compound,MIC [1],MIC [3],MIC [4],MIC [5],MIC [6],MIC [7],MIC [8],MIC [2]
O=C(N[C@H](CO)[C@H](O)c1ccc([N+](=O)[O-])cc1)C(Cl)Cl [CHLORAMPHENICOL],0.5 µg/mL,0.5 µg/mL,0.5 µg/mL,1 µg/mL,0.5 µg/mL,1 µg/mL,1 µg/mL,1 µg/mL
